Assay results from ChEMBL document CHEMBL1122711, “Design, synthesis, and testing of potential antisickling agents. 4. Structure-activity relationships of benzyloxy and phenoxy acids” (J Med Chem, 1984).

Experiments:
[1] = human, 5000 µM
Description: Solubility ratio ([HbS+drug (5 mM)]/[HbS-drug])

[2] = human, 10000 µM
[3] = human, 40000 µM
Description: Solubility ratio ([HbS+drug (40 mM)]/[HbS-drug])

[4] = human, 20000 µM
Description: Solubility ratio ([HbS+drug (20 mM)]/[HbS-drug]

Row | Compound | Solubility ratio [1] | Solubility ratio [2] | Solubility ratio [3] | Solubility ratio [4]
1 | Cc1cc(C)cc(OCC(=O)O)c1 | 1.035 | 1.048 | 1.31 | 1.141
2 | Cc1ccc(OCC(=O)O)c(Br)c1 | 1.031 | 1.035 | 1.189 | 1.102
3 | O=C(O)COCc1ccc(Oc2ccccc2)cc1 | 1.034 | 1.088 | 1.162 | 1.165
4 | CC(C)(Oc1ccc(Cl)cc1)C(=O)Oc1ccccc1C(=O)O | 1.022 | 1.044 | 1.109 | 1.153
5 | Cc1cc(OCC(=O)O)ccc1Cl | 1.05 | 1.08 | 1.275 | 1.171
6 | O=C(O)COc1ccc2c(c1)CCC2 | 1.054 | 1.134 | 1.322 | 1.247
7 | O=C(O)COc1ccc(Cl)cc1 | 1.04 | 1.08 | 1.287 | 1.163
8 | Cc1cc(OCC(=O)O)cc(C)c1Cl | 1.033 | 1.054 | 1.216 | 1.124
9 | O=C(O)CCOCc1ccc(Cl)c(Cl)c1 | 1.062 | 1.142 | 1.395 | 1.305
10 | O=C(O)COCc1ccc(Cl)c(Cl)c1 | 1.083 | 1.162 | 1.32 | 1.309
11 | COc1cc(Cl)ccc1COCC(=O)O | 1.062 | 1.121 | 1.311 | 1.233
12 | Cc1ccc(OCC(=O)O)cc1C | 1.027 | 1.06 | 1.243 | 1.118
13 | O=C(O)C(CCc1ccccc1)C(=O)O | 1.007 | 1.058 | 1.263 | 1.101
14 | O=C(O)COc1ccc(Cl)cc1Cl [2,4-DICHLOROPHENOXYACETIC ACID] | 1.049 | 1.083 | 1.313 | 1.151
15 | CC(C)(Oc1ccc(Cl)cc1)C(=O)O [CLOFIBRIC ACID] | 1.018 | 1.064 | 1.302 | 1.155
16 | N[C@@H](Cc1ccccc1)C(=O)O [PHENYLALANINE] | 1.036 | 1.048 | 1.178 | 1.093

Results, then the compound that gave them:

Row | Solubility ratio [1] | Solubility ratio [2] | Solubility ratio [3] | Solubility ratio [4] | Compound
17 | 1.006 | 1.031 | 1.174 | 1.076 | Nc1ccc(CSCC(=O)O)cc1
18 | 1.018 | 1.077 | 1.248 | 1.145 | O=C(O)COc1c(Br)cc(Br)cc1Br
19 | 1.025 | 1.057 | 1.135 | 1.09 | O=C(O)COc1cccc(Cl)c1Cl
20 | 1.049 | 1.093 | 1.317 | 1.18 | O=C(O)COc1ccc(Br)cc1
21 | 1.025 | 1.053 | 1.236 | 1.117 | O=C(O)CSc1c(F)c(F)c(F)c(F)c1F
22 | 1.076 | 1.149 | 1.382 | 1.33 | O=C(O)COCc1cc(Cl)cc(Cl)c1
23 | 1.01 | 1.031 | 1.315 | 1.129 | Cc1cc(C)cc(COCC(=O)O)c1
24 | 1.06 | 1.086 | 1.289 | 1.142 | Cc1ccc(COCC(=O)O)cc1C
25 | 1.035 | 1.086 | 1.351 | 1.18 | Cc1cc(C)c(C)c(OCC(=O)O)c1
26 | 1.048 | 1.086 | 1.379 | 1.193 | CC(C)(OCc1ccc(Br)cc1)C(=O)O
27 | 0.983 | 1.043 | 1.344 | 1.329 | O=C(O)COc1ccc([N+](=O)[O-])cc1
28 | 1.023 | 1.063 | 1.261 | 1.113 | O=C(O)CSc1ccc(Br)cc1
29 | 1.033 | 1.043 | 1.245 | 1.141 | C=CCc1ccc(OCC(=O)O)c(OC)c1
30 | 1.079 | 1.13 | 1.246 | 1.295 | O=C(O)COCc1ccc(Cl)cc1Cl
31 | 1.026 | 1.069 | 1.296 | 1.168 | O=C(O)CSc1ccc(Cl)cc1
32 | 1.002 | 1.032 | 1.25 | 1.103 | O=C(O)COC(c1ccccc1)c1ccc(Cl)cc1 (stereo not given)
33 | 1.022 | 1.044 | 1.057 | 1.011 | CN(C)c1ccc(OCC(=O)O)cc1.Cl
34 | 0.954 | 0.932 | 1.198 | 0.981 | CC(C)(Oc1ccc(CCNC(=O)c2ccc(Cl)cc2)cc1)C(=O)O [BEZAFIBRATE]
35 | 1.04 | 1.073 | 1.234 | 1.117 | Cc1ccc(C)c(OCCCC(C)(C)C(=O)O)c1 [GEMFIBROZIL]
